# Test results taken from patent US11925650B2, “Antibacterial chemical compound, its manufacturing method and its use thereof” (National Taiwan University, priority 2022, dated 2024).
# Read-outs that look alike come from different tables or passages of the source.
# Assays:
# [1] = test system: Salmonella Typhimurium ATCC 14028; assay: MIC of antibiotics, strain ATCC 14028; type: cell-based; conditions: for MIC: Salmonella enterica
# [2] = test system: Salmonella Typhimurium SA10; assay: MIC of antibiotics, ciprofloxacin-resistant strain SA10; type: cell-based; conditions: Table 6; for MIC: Salmonella enterica, TYPHIMURIUM
# [3] = test system: Salmonella Typhimurium SB10; assay: MIC of antibiotics, ciprofloxacin-resistant strain SB10; type: cell-based; conditions: Table 6; for MIC: Salmonella enterica, TYPHIMURIUM
# [4] = test system: intracellular Salmonella in RAW264.7 cells; assay: Intracellular Salmonella with cefixime or ciprofloxacin alone or combined with SW14 (HCA); type: cell-based; conditions: 24 hours, alone or combined with 0.5 μM SW14
# Method: FIG. 4. Salmonella-infected RAW264.7 cells treated with (A) 0.25, 0.5, 1, 2, and 4 mg/L of cefixime (CFM) and (B) 0.03, 0.06, 0.125, 0.25, and 0.5 mg/L of ciprofloxacin (CIP) alone or in combination with 0.5 μM SW14. After 24 hours, the relative numbers of intracellular bacteria were determined using HCA and the results are expressed as relative fluorescence units (RFU).
# [5] = test system: Salmonella Typhimurium NL08.10; assay: MIC of antibiotics, multidrug-resistant isolate NL08.10; type: cell-based; conditions: Table 5; for MIC: Salmonella enterica, TYPHIMURIUM
# [6] = test system: Salmonella Typhimurium 0911R; assay: MIC of antibiotics, multidrug-resistant isolate 0911R; type: cell-based; conditions: Table 5; for MIC: Salmonella enterica, TYPHIMURIUM
# [7] = test system: ROS levels in infected macrophages; assay: ROS production in Salmonella-infected RAW264.7 cells (H2DCFDA); type: cell-based; conditions: 1 hour; SW14 at concentrations up to 8 μM
# Method: FIG. 10. […] The viabilities of intracellular Salmonella in RAW264.7 cells treated with SW14 with/without the ROS scavengers N-acetyl-cysteine (NAC; 10 mM) or glutathione (GSH; 10 mM) are assessed using HCA. […] Salmonella-infected RAW264.7 cells are loaded with 25 μM H2DCFDA for 45 min followed by treatment with SW14 or PMA at various concentrations. […] S. Typhimurium ATCC 14028 is treated with H2O2 alone or in combination with SW14 (0.5 μM) in (C) LB or (D) LPM for 1 hour followed by evaluation by the CFU assay to determine bacterial viability.
# [8] = test system: intracellular Salmonella in RAW264.7 cells; assay: Intracellular Salmonella viability with autophagy inhibitor 3-MA (HCA); type: cell-based, S. typhimurium; conditions: 10 mM 3-MA
# Method: FIG. 7. Infected RAW264.7 cells treated with 10 mM of 3-MA for 1 h followed by 0.5 μM of SW14 or mock (DMSO) treatment for 24 hours.
# Autophagy was originally characterized as a cellular response to stress, but has been considered to be a defense mechanism to combat host cell infection by intracellular Salmonella. Therefore, to evaluated the role of autophagy in SW14's anti-intracellular Salmonella activity, infected cells are treated with 3-MA, an autophagy inhibitor to block cellular autophagy then followed by treatment with SW14 for 24 h. […] Compared to mock-treated cells, the viability of intracellular Salmonella in cells treated with SW14 or the combination of 3-MA and SW14 were 45% and 36.8%, respectively.
# [9] = CAMH medium, read-out: MIC S. Typhimurium ATCC 14028, CAMH
# [10] = LB medium, read-out: MIC S. Typhimurium ATCC 14028, LB
# [11] = acidic LPM medium, read-out: MIC S. Typhimurium ATCC 14028, LPM
# [12] = Table 6, read-out: MIC ATCC 14028
# [13] = Table 5, read-out: MIC ATCC 14028
compound,measurement,setting,value
CN[C@H](CC(C)C)C(=O)N[C@H]1C(=O)N[C@@H](CC(N)=O)C(=O)N[C@H]2C(=O)N[C@H]3C(=O)N[C@H](C(=O)N[C@H](C(=O)O)c4cc(O)cc(O)c4-c4cc3ccc4O)[C@H](O)c3ccc(c(Cl)c3)Oc3cc2cc(c3O[C@@H]2O[C@H](CO)[C@@H](O)[C@H](O)[C@H]2O[C@H]2C[C@](C)(N)[C@H](O)[C@H](C)O2)Oc2ccc(cc2Cl)[C@H]1O [Vancomycin],MIC,[1]; [9],2050 µg/mL
same,MIC,[1]; [10],512 µg/mL
same,MIC,[1]; [11],128 µg/mL
"O=C(O)c1cn(C2CC2)c2cc(N3CCNCC3)c(F)cc2c1=O [Ciprofloxacin, ciprofloxacin]",MIC,[2],4 µg/mL
same,MIC,[1]; [12],< 0.125 µg/mL
same,MIC,[3],4 µg/mL
same,"survival of intracellular Salmonella in macrophages, antibiotic treatment",[4],inhibited the survival of intracellular Salmonella in macrophages in a dose-dependent manner
Gentamycin,MIC NL08.10,[5],2 mg/L
same,MIC SA10,[2],0.5 mg/L
same,MIC 0911R,[6],2 mg/L
same,MIC ATCC 14028,[1]; Table 5,2 mg/L
same,MIC ATCC 14028,[1]; Table 6,2 mg/L
same,MIC SB10,[3],1 mg/L
[H]/N=C(/N)N[C@H]1[C@H](O)[C@@H](O)[C@H](O[C@@H]2O[C@@H](C)[C@](O)(C=O)[C@H]2O[C@@H]2O[C@@H](CO)[C@H](O)[C@@H](O)[C@@H]2NC)[C@@H](N/C(N)=N\[H])[C@@H]1O [Streptomycin],MIC,[5],> 64 µg/mL
same,MIC,[6],> 64 µg/mL
same,MIC,[1]; [13],32 µg/mL
CN(C)[C@@H]1C(O)=C(C(N)=O)C(=O)[C@@]2(O)C(O)=C3C(=O)c4c(O)cccc4[C@@](C)(O)[C@H]3C[C@@H]12 [Tetracycline],MIC,[5],> 64 µg/mL
same,MIC,[6],> 64 µg/mL
same,MIC,[1]; [13],8 µg/mL
"CCCCCCCCCCCCCC(=O)O[C@@H]1[C@@H](C)[C@@]2(O)[C@@H](C=C(CO)C[C@]3(O)C(=O)C(C)=C[C@@H]23)[C@@H]2C(C)(C)[C@]12OC(C)=O [PMA, reference compound]",ROS levels (H2DCFDA signal) in infected macrophages,[7],significantly elevated ROS levels
CC1COc2c(N3CCN(C)CC3)c(F)cc3c(=O)c(C(=O)O)cn1c23 (stereo not drawn) [Ofloxacin],MIC,[2],8 µg/mL
same,MIC,[1]; [12],< 0.125 µg/mL
same,MIC,[3],8 µg/mL
"Cn1cnc(=N)c2[nH]cnc21 [3-MA, reference compound]",relative number of intracellular bacteria in 3-MA-treated cells,[8],increased significantly
CO[C@H]1/C=C/O[C@@]2(C)Oc3c(C)c(O)c4c(O)c(c(/C=N/N5CCN(C)CC5)c(O)c4c3C2=O)NC(=O)/C(C)=C\C=C\[C@H](C)[C@H](O)[C@@H](C)[C@@H](O)[C@@H](C)[C@H](OC(C)=O)[C@@H]1C [Rifampin],MIC,[1]; [9],16 µg/mL
same,MIC,[1]; [10],16 µg/mL
same,MIC,[1]; [11],4 µg/mL
O=C(N[C@H](CO)[C@H](O)c1ccc([N+](=O)[O-])cc1)C(Cl)Cl [Chloramphenicol],MIC,[5],32 µg/mL
same,MIC,[6],32 µg/mL
same,MIC,[1]; [13],16 µg/mL
CC1(C)S[C@@H]2[C@H](NC(=O)[C@H](N)c3ccccc3)C(=O)N2[C@H]1C(=O)O [Ampicillin],MIC,[5],> 64 µg/mL
same,MIC,[6],> 64 µg/mL
same,MIC,[1]; [9],4 µg/mL
same,MIC,[1]; [10],4 µg/mL
same,MIC,[1]; [13],16 µg/mL
same,MIC,[1]; [11],1 µg/mL
